According to the NIST ThermoML archive (doi:10.1016/j.jct.2014.07.019):

Assay: xn = mol fraction of the nth substance listed
Details: 100 kPa, Liquid; for speed of sound: Frequency=3 MHz, Sing-around technique in a fixed-path interferometer; for mass density: Vibrating tube method

CCCCOCC(C)O (stereo not given) [1-butoxy-2-propanol] + CC(C)O
Details | mass density, 293.15 K [kg/m3] | mass density, 298.15 K [kg/m3] | mass density, 303.15 K [kg/m3] | mass density, 308.15 K [kg/m3] | mass density, 313.15 K [kg/m3] | speed of sound, 293.15 K [m/s] | speed of sound, 298.15 K [m/s] | speed of sound, 303.15 K [m/s] | speed of sound, 308.15 K [m/s] | speed of sound, 313.15 K [m/s]
x1 = 0.0518 | 795.249 | 791.104 | 787.006 | 782.711 | 778.081 | 1178.7 | 1159 | 1141.8 | 1124.3 | 1103.5
x1 = 0.1029 | 803.695 | 799.527 | 795.386 | 791.07 | 786.435 | 1188.9 | 1168.9 | 1150.7 | 1133.2 | 1111.5
x1 = 0.1532 | 811.327 | 807.143 | 802.969 | 798.631 | 793.996 | 1197.5 | 1178.3 | 1159.2 | 1141.6 | 1121.5
x1 = 0.2019 | 818.045 | 813.834 | 809.64 | 805.279 | 800.656 | 1205.8 | 1186.1 | 1166.8 | 1149.2 | 1129.9
x1 = 0.2529 | 824.525 | 820.286 | 816.061 | 811.703 | 807.104 | 1213.9 | 1194.4 | 1174.2 | 1156.5 | 1138.4
x1 = 0.3032 | 830.352 | 826.103 | 821.857 | 817.482 | 812.872 | 1221.8 | 1201.3 | 1181 | 1163.2 | 1146.6
x1 = 0.4059 | 840.824 | 836.541 | 832.254 | 827.85 | 823.26 | 1234.6 | 1214 | 1193.5 | 1175.7 | 1159.4
x1 = 0.5048 | 849.502 | 845.196 | 840.881 | 836.456 | 831.887 | 1244.9 | 1225.3 | 1204.4 | 1186.7 | 1170.3
x1 = 0.604 | 857.039 | 852.718 | 848.373 | 843.934 | 839.389 | 1253.3 | 1234.6 | 1214.4 | 1196.6 | 1179.7
x1 = 0.7012 | 863.524 | 859.19 | 854.833 | 850.391 | 845.859 | 1261.2 | 1243 | 1222.6 | 1204.8 | 1187.9
x1 = 0.8028 | 869.466 | 865.108 | 860.733 | 856.287 | 851.775 | 1267.7 | 1250.2 | 1230.5 | 1212.8 | 1195.7
x1 = 0.8545 | 872.203 | 867.842 | 863.464 | 859.022 | 854.514 | 1270.6 | 1254.6 | 1234 | 1216.2 | 1199.3
x1 = 0.9056 | 874.745 | 870.379 | 865.982 | 861.537 | 857.049 | 1273.4 | 1257.5 | 1237.5 | 1219.7 | 1202.1
x1 = 0.954 | 876.996 | 872.629 | 868.284 | 863.829 | 859.355 | 1275.9 | 1259.8 | 1240.6 | 1222.9 | 1204.7
x1 = 1 | 879.031 | 874.632 | 870.204 | 865.737 | 861.241 | 1279 | 1260.9 | 1242.9 | 1224.9 | 1207
